In patent US20240269238A1, “Therapeutic Regimens and Methods for Reducing Body Weight in a Subject with Fatty Liver Disease using a GLP-1R and GCGR Agonist” (Spitfire Pharma LLC, priority 2022, published 2024):
pEC50: −log10 of the molar value.

Tests used:
[1] = Phase II 24-week interim analysis in non-diabetic obese and overweight subjects (NCT05295875, Example 4); type: in vivo, human
Source text: Results presented in this example correspond to a 24-week interim analysis obtained from a placebo-controlled phase II study (ClinicalTrials.gov Identifier: NCT05295875) evaluating pemvidutide (ALT-801) in obese and overweight subjects. It is estimated that 70 to 75% subjects of this population have NAFLD while 34% may have NASH (Quek J. et al. Global prevalence of non-alcoholic fatty liver disease and non-alcoholic steatohepatitis in the overweight and obese population: a systematic review and meta-analysis. Lancet Gastroenterol Hepatol. 2023 January; 8(1):20-30). Key eligibility criteria were: (1) Men and women, ages 18-75 years; (2) at least one unsuccessful weight loss attempt per Investigator judgement; (3) Body Mass Index (BMI) ≥30 kg/m2 or BMI ≥27 kg/m2 with at least one obesity-related comorbidity (history of cardiovascular disease, hypertension, dyslipidemia, pre-diabetes or obstructive sleep apnea) and (4) non-diabetes (HbA1c ≤6.5% and fasting glucose ≤125 mg/dL). Eligible subjects were randomized 1:1:1:1 to one of the following treatment arms: Group 1 (39 subjects): pemvidutide 1.2 mg SC once weekly for 24 weeks; Group 2 (40 subjects): pemvidutide 1.8 mg administered subcutaneously once weekly for 24 weeks; Group 3 (40 subjects): pemvidutide 0.6 mg administered subcutaneously for 1 week, 1.2 mg administered subcutaneously for 1 week, 1.8 mg administered subcutaneously once weekly for 2 weeks, followed by 2.4 mg administered subcutaneously once weekly for 20 additional weeks (in sequence) and Group 4 (41 subjects): Placebo administered subcutaneously once weekly for 24 weeks. The randomization of subjects was stratified based on sex and baseline body mass index (BMI <35 kg/m2 vs. ≥35 kg/m2). A minimum of 25% of randomized subjects were male. All subjects received counselling on a reduced-calorie diet of 1200-1500 calories for individuals <250 lbs (113.6 kg) and 1500-1800 calories for individuals ≥250 lbs (113.6 kg) and a gradual increase in physical activity (targeting 150 min of physical activity per week) by a qualified healthcare professional at screening and at subsequent visits during the treatment period. Subjects were instructed to record their food intake and physical activity daily, and compliance with lifestyle interventions will be assessed by the investigator on a regular basis. A subgroup of subjects were subjected MRI-PDFF to evaluate the hepatic fat fraction in as well as composition to measure total body adipose tissue (AT) and adipose tissue-free mass (ATFM).
FIG. 27 presents the mean percentage weight loss over time in all evaluated subjects across the three pemvidutide doses and placebo over 24 weeks. Results are presented as efficacy estimand that assumes subjects remained on treatment for the entire duration, with missing values handled by Mixed Models for Repeated Measures. […] FIG. 28 presents the mean percentage weight loss (presented as efficacy estimand as described above) that was achieved over 24 weeks with pemvidutide and placebo in a subgroup of subjects with baseline body weight ≤115 kg. […] This phenomenon may relate to a lower level of drug exposure in subjects with higher body weight, and would support the possibility to increase dose levels in this population to maximize efficacy. FIG. 29 presents a weight loss responder analysis based on calculation of percentage of subjects who respectively achieve ≥5%, ≥10% and ≥15% weight loss across the three pemvidutide doses and placebo. FIG. 30 presents the percentage weight loss achieved across the four groups comparing Hispanic versus non-Hispanic subjects. […] Waist circumference is an index of central or abdominal obesity recommended by the WHO to assess the risk of metabolic diseases such as NAFLD and NASH and cardiovascular diseases.

glucagon receptor (GCGR) = glucagon receptor (GCGR) (Homo sapiens, UniProt P47871); experiment: cellular assay, agonist activity at GCGR; type: cell-based
Source text: This disclosure relates to a dual agonist peptide(s) as well as pharmaceutical dosage formulations comprising, and methods for using, the same. The dual agonist peptides have affinity for, and in preferred embodiments about equal affinity for, glucagon-like peptide 1 receptor (GLP-1R) and glucagon receptor (GCGR), as may be determined using a cellular assay. In some embodiments, this disclosure provides pharmaceutical dosage formulations configured to induce weight loss in a human being with fatty liver disease. In some embodiments, the human being may, or may not, suffer from type 2 diabetes. In some embodiments, the disclosure provides pharmaceutical dosage formulations configured to reduce pathogenic plasma lipid mediators. As used herein, “pathogenic” serum lipid mediators, included but are not limited to the following reactive lipid species: malondialdehyde (MDA), isolevuglandins (IsoLG), methyglyoxal (MGO), 4-oxononenal (ONE), and 4-hydroxynonenal (HNE). Oxidized phospholipids include 1-palmitoyl-2-oxovaleroyl-sn-glycero-3-phosphorylcholine (POVPC), 1-O-alkyl-2-azelaoyl-sn-glycero-3-phophorylcholine (azPAF), 1-(Palmitoyl)-2-(5-keto-6-octene-dioyl) phosphatidylcholine (KOdiA-PC), 1-palmitoyl-2-F2-isoprostane-sn-glycero-3-phosphocholine (F2IsoP-PC), and 1-palmitoyl-2-(5,6)-epoxyisoprostane E2-sn-glycero-3-phosphocholine (PEIPC). […]

Chain of glucagon receptor (GCGR) (P47871 26-477): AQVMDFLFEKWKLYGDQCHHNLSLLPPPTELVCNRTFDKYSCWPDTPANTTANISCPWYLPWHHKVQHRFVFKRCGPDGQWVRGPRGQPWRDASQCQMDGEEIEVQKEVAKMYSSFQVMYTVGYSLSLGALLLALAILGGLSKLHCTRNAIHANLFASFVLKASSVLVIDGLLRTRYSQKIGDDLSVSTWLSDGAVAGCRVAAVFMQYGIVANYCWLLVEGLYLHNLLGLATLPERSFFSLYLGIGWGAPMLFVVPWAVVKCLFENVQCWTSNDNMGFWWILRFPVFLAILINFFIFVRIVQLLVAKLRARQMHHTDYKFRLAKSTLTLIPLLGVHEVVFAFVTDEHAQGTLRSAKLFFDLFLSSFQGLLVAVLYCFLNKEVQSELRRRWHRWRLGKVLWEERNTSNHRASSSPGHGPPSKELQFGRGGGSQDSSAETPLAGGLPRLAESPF

## CC[C@H](C)[C@H](NC(=O)[C@H](Cc1ccccc1)NC(=O)[C@H](CCC(=O)O)NC(=O)[C@@H]1CCCCNC(=O)CC[C@H](NC(=O)[C@H](CC(=O)O)NC(=O)[C@H](CC(C)C)NC(=O)[C@H](Cc2ccc(O)cc2)NC(=O)[C@H](CCCCN)NC(=O)[C@H](CO)NC(=O)[C@H](Cc2ccc(O)cc2)NC(=O)[C@H](CC(=O)O)NC(=O)[C@H](CO)NC(=O)[C@@H](NC(=O)[C@H](Cc2ccccc2)NC(=O)[C@@H](NC(=O)CNC(=O)[C@H](CCC(N)=O)NC(=O)C(C)(C)NC(=O)[C@@H](N)Cc2c[nH]cn2)[C@@H](C)O)[C@H](C)O)C(=O)N[C@@H](CCCCNC(=O)C2O[C@@H](OCCCCCCCCCCCCCCCCCC(=O)O)C(O)C(O)[C@@H]2O)C(=O)N[C@@H](C)C(=O)N[C@@H](C)C(=O)N1)C(=O)N[C@@H](CCC(N)=O)C(=O)N[C@@H](Cc1c[nH]c2ccccc12)C(=O)N[C@@H](CC(C)C)C(=O)N[C@@H](CC(C)C)C(=O)N[C@@H](CCC(N)=O)C(=O)N[C@H](C(N)=O)[C@@H](C)O (some centres unmarked) [ALT-801, Pemvidutide]
[1]; 1.2, 1.8, 2.4 mg, 24-week treatment
  heart rate: do not induce a significant change in heart rates
[1]; 24-week treatment
  systolic and diastolic blood pressure: improves both systolic and diastolic blood pressures in a dose dependent manner
[1]; 24 weeks
  weight loss, Hispanic versus non-Hispanic subjects: tend to lose less body weight
[1]; all doses, week 24
  serum lipids: decreased as compared to baseline
  waist circumference: significant reduction in waist circumference
[1]; all evaluated subjects, 1.2, 1.8, 2.4 mg, 24 weeks
  mean percentage weight loss over time: progressive, dose-dependent weight loss
[1]; baseline body weight <=115 kg, 24 weeks
  weight loss in subgroup vs all subjects: higher levels of weight loss
Glucagon receptor (GCGR)
  pEC50: ~10.40
